{"source": "patent US20020058042A1", "about": "“Non-IgA fc binding forms of the Group B streptococcal beta antigens” (priority 1996, published 2002)", "tested_on": "binding of human IgA to the purified Cβ protein", "experiment": "ELISA inhibition assay: peptides blocking binding of human IgA to purified Cβ protein", "conditions": "synthetic peptide added with half-maximal dilution of IgA myeloma protein", "experimental": "Several synthetic peptides were made corresponding to the amino acid sequence contained within this region of the Cβ protein. Peptides were synthesized using NMP t-butoxycarbonyl chemistry on an ABI 430A peptide synthesizer (Applied Biosystems, Foster City, Calif.) and were deprotected. Peptides from a sample of the resin were removed from the resin by treatment with HF in the presence of anisole (0° C./1 h). Preparative purification of these peptides were performed using a C18 column (2.14 ID×30 cm) (Dynamax-Rainin, Woburn, Mass.). The peptides were quantitated by PTC amino acid analysis using Waters Picotag system (Waters, Milford, Mass.). The synthesized peptides eluted from the C18 column as a major peak consisting of usually 75-85% of the total elution profile. The amino acid composition of the purified peptides were in good agreement with the sequence which was used to synthesize the peptides. […] The plates were incubated at 37° C. for 1 h and the absorbance at 405 nm determined using an Elida-5 microtiter plate reader (Physica, New York, N.Y.). […] This was done to obtain a titer of the human IgA myeloma protein which would give a half-maximal reading in the ELISA assay. […] The dilution of the human IgA myeloma protein which gave the half maximal reading was then added. […] The plates were then processed and read as described. The percentage of inhibition would be calculated as follows: […]", "note": "No end group written: not given here."}
{"sequence": "NHQKSQVEKMAEQKG [SEQ ID NO: 10]", "values": [{"measurement": "inhibition of human IgA binding to purified Cβ", "result": "inhibited"}]}
